{"source": "patent US10286038B2", "about": "“Lysosome membrane protein 2 (LIMP-2) based peptides and related uses” (Northwestern University, priority 2016, dated 2019)", "target": "T1, recombinant GC (Homo sapiens, UniProt P04062, R534H)", "T1 construct": "purchased Genzyme Therapeutics, Boston, USA", "T1 sequence (P04062 40-536 R534H)": "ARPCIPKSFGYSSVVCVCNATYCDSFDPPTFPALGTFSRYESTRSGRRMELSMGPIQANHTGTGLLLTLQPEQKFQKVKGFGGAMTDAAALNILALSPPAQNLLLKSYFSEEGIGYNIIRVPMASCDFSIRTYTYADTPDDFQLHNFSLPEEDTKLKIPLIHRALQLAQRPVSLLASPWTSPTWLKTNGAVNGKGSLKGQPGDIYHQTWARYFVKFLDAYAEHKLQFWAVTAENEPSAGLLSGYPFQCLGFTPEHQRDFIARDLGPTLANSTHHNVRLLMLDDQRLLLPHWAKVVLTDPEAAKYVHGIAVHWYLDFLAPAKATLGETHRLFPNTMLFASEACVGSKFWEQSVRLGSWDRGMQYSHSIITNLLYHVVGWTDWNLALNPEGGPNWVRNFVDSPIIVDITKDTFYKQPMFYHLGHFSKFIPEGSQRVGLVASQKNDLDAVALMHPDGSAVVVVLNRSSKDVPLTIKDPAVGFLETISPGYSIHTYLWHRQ", "test": "stabilization assay of recombinant GC at 37° C.", "type": "biochemical", "conditions": "recombinant GC incubated with peptide at 37° C.", "method": "Proteins were visualized by coomassie staining (CBB). […] See also FIG. 6.\nTo address the functional impact of the observed interaction between the helix 5 peptide and recombinant GC, we measured GC activity in the presence of a one- to tenfold molar excess of the helix 5 peptide. […] No effect on enzymatic activity after incubation with the helix 5 peptide or the LIMP-2 ectodomain could be found for recombinant α-mannosidase (LAMAN) further emphasizing the specificity of the helix 5 peptide on GC activity (FIG. 6E). […] To analyze if the increase in GC activity is due to stabilization of the enzyme, recombinant GC was incubated with the helix 5 and the control peptide at 37° C. and the activity of GC was measured at regular intervals (FIG. 3F)."}
{"substance": "Biotin-Ttds-LREIIEAMLKAYQQKLFVTHTVDE [helix 5 peptide]", "values": [{"measurement": "GC enzymatic activity remaining at 72 hours", "result": "still displayed significant enzymatic activity"}]}
